Legend:
MDA-MB-231 cells [1] = assay: MTT cell viability assay; assay type: cell-based, human; conditions: for IC50: MTT, 48 h
Method: (§1) Cell viability assay was performed as described previously. Briefly, cells were seeded in 96 well plates and treated with different concentrations of compound 19 for 48 h. After drug treatment, MTT reagent was added in each well of the plate and cell viability was quantified by measuring the absorbance at 590 nm.

[2] = tested on: MCF-10A (Normal breast epithelial cells); assay: MTT cell viability assay; assay type: cell-based, human
Method: as §1

[3] = In-vivo pharmacokinetic study; set-up: species or system Sprague Dawley (SD) rats; conditions: rat
Method: Male Sprague Dawley (SD) rats weighing 200–220 g were obtained from the Laboratory of Animal Division of CSIR-CDRI (Lucknow, India). Animals were kept in well ventilated cages in hygienic conditions at room temperature (24 ± 2 °C), 40–60% relative humidity and 12 h light-dark cycle. The animals were acclimatized for a minimum period of 3 days prior to the experiments. Pharmacokinetic study was conducted according to protocol approved by the CSIR-CDRI Institutional Animal Ethic Committee (IAEC approval no. IAEC/2012/91). Compound 19 was dissolved in DMSO:Poly Ethylene Glycol-400: 0.9%w/v saline in the ratio of 1:1:2 and was intravenously administered at the dose of 5 mg/kg to each rat (n = 6). The rats were kept on fasting overnight with water alone for oral pharmacokinetic studies. Compound 19 was dissolved in DMSO:Poly Ethylene Glycol-400: 0.5% w/v Sodium carboxymethyl cellulose in TDW in the ratio of 3:1:4 and was orally administered at the dose of 50 mg/kg to each rat (n = 6). Blood samples were collected in microcentrifuge tubes for each time point at 0.083, 0.167, 0.333, 0.5, 0.75, 1.0, 2.0, 4.0, 6.0, 8.0, 10.0, 12.0, 24.0, 48.0 and 72 h post dosing. The blood samples were collected after light ether anesthesia from the retro-orbital plexus of rats using heparin as anticoagulant. Plasma was separated after centrifugation at 5000 rpm for 10 min and all the samples were stored at −80 °C until analysis. Rat plasma samples were processed using liquid-liquid extraction. 100 µL aliquot of plasma mixed with 150 µL of acetonitrile and 100 µL of 5 mM NaHCO3 solution was added and vortexed to mix well. In each sample, 2.5 mL of tert-Butyl methyl ether (TBME) (extraction solvent) was added and vortexed for 10 min at 2500 rpm on vibramax (Heidolph, Schwabach, Germany) followed by centrifugation (Eppendorf, Hamburg, Germany) at 5,000 rpm for 5 min. An aliquot of 2.0 mL of supernatant organic layer was separated and evaporated on vacuum concentrator (Thermo scientific, Asheville, USA) to complete dryness. The residue was reconstituted with 100 µL of mobile phase and injected into the LC-MS/MS system for analysis. The plasma samples ([…]) were assayed along with calibration standards and QC samples and the levels of compound 19 was calculated using Analyst software. The pharmacokinetic profile and parameters were evaluated by non-compartmental model approach using Pheonix 6.3 WinNonlin (Pharsight corporation, USA) including t1/2, elimination half-life; Cmax, maximum plasma concentration; tmax, time to reach maximum plasma concentration; AUC0-t, area under concentration curve from zero to last time point.

MDA-MB-231 cells [4] = assay: Cell cycle distribution analysis (PI, FACS); assay type: cell-based, human; conditions: 12 µM
Method: For the study of cell cycle distribution, cells were synchronized by serum starvation for 48 h and then grown in serum containing media in the presence or absence of 12 µM compound 19, after 0, 24 and 48 h, cells were harvested, washed twice with cold PBS and fixed with 70% ethanol. The fixed cells were washed with chilled PBS and then stained with 50 μg/mL of Propidium iodide. Cell cycle distribution was analyzed by using FACS-Calibur (BD Biosciences, San Diago, CA).

plasmid DNA (pUC18) = assay: DNaseI cleavage protection assay; assay type: binding; conditions: up to 500 µM
Method: We performed DNaseI cleavage assay as described in our previous study. Briefly, 100 ng of plasmid DNA (pUC18) was incubated with 100 µM concentration of doxorubicin (a known DNA intercalator), DAPI (DNA minor groove binder), methyl green (DNA major groove binder) and compound 19 (at 250 and 500 µM concentrations) for 30 min at 37 °C in an incubation buffer similar to ligation buffer. After incubation, the DNA was cleaved by adding 0.0025U of DNaseI in each reaction mixture for 5 min at 37 °C and the reactions were stopped by adding stop buffer which contained 7 M Urea, 20 mM Tris-Cl (pH. 7.5), 50 mM EDTA, 20% glycerol and Bromophenol blue. The samples were resolved on 1% agarose gel and visualized under UV transilluminator and image taken with GE Image quant LAS4010.

MDA-MB-231 cells [5] = assay: Annexin V-FITC/PI apoptosis flow cytometry; assay type: cell-based, human
Method: Apoptotic cell death of MDA-MB-231 cells upon treatment with compound 19 was measured using a commercially available Annexin V-FITC apoptosis detection kit according to the manufacturer’s protocol (BD Biosciences, San Diego, CA). Briefly, cells were treated with different concentrations (0, 6 and 12 µM) of compound 19 for 24 and 48 h. The cells were then harvested, washed with cold PBS and stained with Annexin V-FITC and propidium iodide (PI) in binding buffer at room temperature in the dark. The stained cells were analyzed by fluorescence-activated cell sorting using a FACS-Calibur instrument (BD Biosciences, San Diego, CA) equipped with CellQuest 3.3 Software.

[6] = male, Sprague Dawley, plasma, iv, I.V route, 5 mg/kg
[7] = male, Sprague Dawley, plasma, oral route, 50 mg/kg
[8] = 0 h (treated and untreated cells)

## COc1cc(/C=C/c2cc(=O)oc3c2ccc2ccccc23)cc(OC)c1 [Compound 19, (E)-4-(3,5-dimethoxystyryl)-2H-benzo[h]chromen-2-one]
MDA-MB-231 cells [1]; 10 µM
  % Inhibition of cell viability at 10 µM, MDA-MB-231 (Breast): 51.35%
MDA-MB-231 cells [1]; Homo sapiens, MDA-MB-231, 48 h, 10 μM, % inhibition, read-out: Antiproliferative activity at 10μM in MDA-MB-231
  inhibition at 10 µM: > 50%
MDA-MB-231 cells [1]; Homo sapiens, MDA-MB-231, 48 h
  IC50: 12.5 ± 2.8 µM
MDA-MB-231 cells [1]; MDA-MB-231, versus Neo-tanshinlactone and resveratrol
  Comparative cell viability versus parent compounds: more active as compared to parent compounds
MDA-MB-231 cells [1]
  IC50: 12 µM
[2]
  % Inhibition of cell viability at 10 µM, MCF-10A (Normal breast epithelial cells): 50.83%
[3]; male, Sprague Dawley, iv, I.V route, 5 mg/kg, plasma concentration at 5 min
  Cmax: 0.325 ± 0.102 µg/mL
[3]; [6]
  AUC(0-t): 0.457 ± 0.131 µg·h/mL
  half-life: 19.2 ± 11.8 h
[3]; male, Sprague Dawley, plasma, oral 50 mg/kg versus I.V 5 mg/kg, read-out: Bioavailability (%F)
  bioavailability: 7.85 ± 0.65%
[3]; [7]
  AUC(0-t): 0.342 ± 0.0186 µg·h/mL
  Cmax: 0.0134 ± 0.00292 µg/mL
  Tmax: 0.5 h
  half-life: 22.8 ± 4.69 h
[3]; after oral dosing, 50 mg/kg
  Time up to which plasma concentrations are detectable: up to 72 h
MDA-MB-231 cells [4]; [8]
  Cells in G0/G1 phase: 75.12 ± 2.23%
  Cells in G2/M phase: 8.71 ± 1.57%
  Cells in S-phase: 16.18 ± 0.65%
MDA-MB-231 cells [4]; 24 h
  Cells in G0/G1 phase: 57.61 ± 0.1%
  Cells in G2/M phase: 21.48 ± 2.50%
  Cells in S phase: 20.91 ± 2.61%
MDA-MB-231 cells [4]; 48 h
  Cells in G0/G1 phase: 33.78 ± 4.77%
  Cells in G2/M phase: 32.53 ± 0.58%
  Cells in S phase: 33.7 ± 4.2%
Plasmid DNA (pUC18)
  Protection of DNA from cleavage by DNase I (DNA binding): no protection from cleavage by DNase I
MDA-MB-231 cells [5]; 6 µM, 24 h
  Apoptosis: 10.78 ± 1.21%
MDA-MB-231 cells [5]; 6 µM, 48 h
  Apoptosis: 18.68 ± 4.86%
MDA-MB-231 cells [5]; 12 µM, 24 h
  Apoptosis: 16.37 ± 1.18%
MDA-MB-231 cells [5]; 12 µM, 48 h
  Apoptosis: 36.17 ± 3.43%

Reference: paper PMC5587642, “A Novel Benzocoumarin-Stilbene Hybrid as a DNA ligase I inhibitor with in vitro and in vivo anti-tumor activity in breast cancer models” (Scientific Reports, 2017)
